Test system: 4T1 murine mammary cancer cells
Method: In this example, the average body weight of mice is 20 g; and the doses of Taxol and RAP are 20 mg/kg, and 40 mg/kg, respectively.

SMILES: CC(=O)O[C@H]1C(=O)[C@@]2(C)[C@H]([C@H](OC(=O)c3ccccc3)[C@]3(O)C[C@H](OC(=O)[C@H](O)[C@@H](NC(=O)c4ccccc4)c4ccccc4)C(C)=C1C3(C)C)[C@]1(OC(C)=O)CO[C@@H]1C[C@@H]2O [Taxol, paclitaxel]
- survival rate at Day 55 (Day 55): 30%
- anticancer effect compared to control group (RAP 40 mg/kg/day gavage since day 0, Taxol 20 mg/kg/week i.p. since day 17, tumor cells at day 7): significant anticancer effect
- death at day 50 (day 50, when all the mice of Control group died): no death occurred
